Reference: ChEMBL document CHEMBL4028802, “DILIrank: the largest reference drug list ranked by the risk for developing drug-induced liver injury in humans” (Drug Discov Today, 2016)

Tests used:
[1] = organism: Homo sapiens; assay: Liver toxicity in human assessed as induction of drug-induced liver injury by measuring verified drug-induced liver injury concern status
[2] = organism: Homo sapiens; assay: Liver toxicity in human assessed as induction of drug-induced liver injury by measuring severity class index
Wherever DILI severity class is given: key of the grades not given here.

SMILES	DILI_Concern [1]	DILI_severity_class [2]
CC(c1cc2ccccc2s1)N(O)C(N)=O (stereo not drawn) [ZILEUTON]	Most-Dili-Concern	5
CC(C)(C)NC[C@H](O)COc1nsnc1N1CCOCC1 [TIMOLOL]	Ambiguous-Dili-Concern	5
CC12CC3CC(C)(C1)CC(N)(C3)C2 [MEMANTINE]	Less-Dili-Concern	7
C[C@]12C=CC(=O)C=C1CC[C@@H]1[C@@H]2[C@@H](O)C[C@@]2(C)[C@H]1CC[C@]2(O)C(=O)CO [PREDNISOLONE]	Less-Dili-Concern	3
COCC1=C(C(=O)O)N2C(=O)[C@@H](NC(=O)/C(=N\OC)c3csc(N)n3)[C@H]2SC1 [CEFPODOXIME]	Ambiguous-Dili-Concern	3
Cc1oncc1C(=O)Nc1ccc(C(F)(F)F)cc1 [LEFLUNOMIDE]	Most-Dili-Concern	8
NCC(CC(=O)O)c1ccc(Cl)cc1 (stereo not drawn) [BACLOFEN]	Less-Dili-Concern	3
Cc1cccc(Nc2ccccc2C(=O)O)c1C [MEFENAMIC ACID]	Most-Dili-Concern	8
CC#C[C@]1(O)CC[C@H]2[C@@H]3CCC4=CC(=O)CCC4=C3[C@@H](c3ccc(N(C)C)cc3)C[C@@]21C [MIFEPRISTONE]	No-Dili-Concern	0
OCCN1CCN(CCCN2c3ccccc3Sc3ccc(Cl)cc32)CC1 [PERPHENAZINE]	Less-Dili-Concern	3
Cn1nnc2c(C(N)=O)ncn2c1=O [TEMOZOLOMIDE]	Less-Dili-Concern	4
CCN(CC)CCOc1ccc(C(=C(Cl)c2ccccc2)c2ccccc2)cc1 [CLOMIPHENE]	Less-Dili-Concern	3
CNC1=Nc2ccc(Cl)cc2C(c2ccccc2)=[N+]([O-])C1 [CHLORDIAZEPOXIDE]	Less-Dili-Concern	5
CC(C[N+](C)(C)C)OC(N)=O (stereo not drawn) [BETHANECHOL]	No-Dili-Concern	0
CN(C)CCc1c[nH]c2ccc(Cn3cncn3)cc12 [RIZATRIPTAN]	No-Dili-Concern	0
CC(COc1ccccc1)NN (stereo not drawn) [PHENOXYPROPAZINE]	Most-Dili-Concern	8
COc1ccc2c3c1O[C@H]1[C@@H](O)C=C[C@H]4[C@@H](C2)N(C)CC[C@@]341 [CODEINE]	No-Dili-Concern	0
C/C(=N\O)C(C)NCC(C)(C)CNC(C)/C(C)=N/O (stereo not drawn) [EXAMETAZIME]	No-Dili-Concern	0
CO[C@H]1C[C@@H]2CC[C@@H](C)[C@@](O)(O2)C(=O)C(=O)N2CCCC[C@H]2C(=O)O[C@H]([C@H](C)C[C@@H]2CC[C@@H](OCCO)[C@H](OC)C2)CC(=O)[C@H](C)/C=C(\C)[C@@H](O)[C@@H](OC)C(=O)[C@H](C)C[C@H](C)/C=C/C=C/C=C/1C [EVEROLIMUS]	Ambiguous-Dili-Concern	4
NC(=O)[C@@H]1CCCN1C(=O)[C@H](Cc1cnc[nH]1)NC(=O)[C@@H]1CCC(=O)N1 [PROTIRELIN]	No-Dili-Concern	0
Nc1nc(Cl)nc2c1ncn2[C@H]1C[C@H](O)[C@@H](CO)O1 [CLADRIBINE]	Ambiguous-Dili-Concern	3
O=C(O)c1cc(-c2ccc(F)cc2F)ccc1O [DIFLUNISAL]	Most-Dili-Concern	8
O=C1NC(c2ccccc2)(c2ccccc2)C(=O)N1COP(=O)(O)O [FOSPHENYTOIN]	Most-Dili-Concern	8
Nc1ncnc2c1ncn2[C@@H]1O[C@H](CO)[C@@H](O)[C@H]1O [ADENOSINE]	No-Dili-Concern	0
